Molecular target: T1, human TREM2 (Homo sapiens, UniProt Q9NZC2)
T1 construct: expressed in transfected cells; host or cells: HEK293T (HEK293T-hTREM2 cells)
Experiment: TREM2 agonist potency by cellular phosphorylation of Spleen Tyrosine Kinase (Syk), AlphaLisa, HEK293T-hTREM2 cells
Format: cell-based
Settings: hTREM2 EC50 Data (HEK293 Cells); Syk phosphorylation, AlphaLisa; read-out: hTREM2 EC50
Method: Measurement of TREM2 agonist potency was done using a HEK cell line expressing human TREM2 and DAP12 (HEK293T-hTREM2 cells). Binding of small molecules to, and activation of, TREM2 increases the phosphorylation of Syk. The resultant levels of Syk phosphorylation are measured using a commercial AlphaLisa reagent kit. To perform the assay, HEK-hTREM2 cells were plated at 14,000 cells per well in a 384 well plate, in 25 μL of complete growth media and incubated at 37° C., 5% CO2 for 20-24 hours.
Prior to the assay, test compounds were diluted in the 384 well plates in assay buffer and allowed to equilibrate for 30 minutes. Growth media was removed from cell plates by inversion on blotting paper, and 25 μL of test articles in assay buffer was added to cells. Cells were incubated for 45 minutes at room temperature. After 45 minutes, assay buffer was removed and 10 μL of lysis buffer was added. Plates were shaken for 20 minutes at 350 RPM at room temperature. After complete lysis, AlphaLisa reagents were added to the lysate, and fluorescence intensity was measured using a Perkin Elmer Envision plate reader. Intensities were used to generate a standard curve, and % activation was calculated. Curve fitting was performed using Prism v9 software, log (agonist) vs response-variable slope (four parameters), and EC50s were calculated from the curve fit.
The results presented in Table B have been generated with the in vitro assay described above. This assay may be used to test any of the compounds described herein to assess and characterize a compound's ability to act as an agonist of TREM2.

T1 sequence (Q9NZC2 19-230): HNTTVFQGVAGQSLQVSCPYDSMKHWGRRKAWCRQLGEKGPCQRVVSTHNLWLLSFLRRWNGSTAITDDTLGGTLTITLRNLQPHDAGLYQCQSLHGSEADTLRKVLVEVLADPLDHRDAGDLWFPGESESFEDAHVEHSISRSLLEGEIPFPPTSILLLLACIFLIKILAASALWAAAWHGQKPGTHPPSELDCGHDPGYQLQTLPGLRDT
T1 sequence (O43914 22-113 partner): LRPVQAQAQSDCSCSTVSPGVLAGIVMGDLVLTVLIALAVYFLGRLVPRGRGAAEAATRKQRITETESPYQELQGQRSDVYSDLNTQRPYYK

Row | Compound | EC50 [nM]
1 | Cc1nc2nc([C@@H]3CCO[C@H](c4ccc(=O)n(C)c4)C3)nc(C34CC(C(F)F)(C3)C4)c2nc1C [Example 32, 5-[(2S,4R)-4-[4-[3-(difluoromethyl)-1-bicyclo[1.1.1]-pentanyl]-6,7-dimethyl-pteridin-2-yl]tetrahydropyran-2-yl]-1-methyl-pyridin-2-one] | 100 to 500
2 | Cc1nc2nc([C@H]3CCO[C@@H](c4ccc(=O)n(C)c4)C3)nc(C34CC(CC(F)(F)F)(C3)C4)c2nc1C [Example 54, 5-[(2R,4S)-4-[6,7-dimethyl-4-[3-(2,2,2-trifluoroethyl)-1-bicyclo[1.1.1]pentanyl]pteridin-2-yl]tetrahydro-2H-pyran-2-yl]-1-methyl-pyridin-2(1H)-one] | < 100
3 | Cc1nc2nc([C@H]3C[C@@H](C)O[C@@H](c4ccc(=O)n(C)c4)C3)nc(C34CC(C(F)(F)F)(C3)C4)c2nc1C [Example 56, 5-[(2R,4S,6R)-4-[6,7-dimethyl-4-[3-(trifluoromethyl)-1-bicyclo[1.1.1]-pentanyl]pteridin-2-yl]-6-methyl-tetrahydropyran-2-yl]-1-methyl-pyridin-2-one] | < 100
4 | Cc1nc2nc([C@H]3CCO[C@@H](c4ccc(=O)n(C)c4)C3)nc(C34CCC(C(C)(F)F)(CC3)C4)c2nc1C [Example 60, 5-((2R,4S)-4-(4-(4-(1,1-difluoroethyl)bicyclo[2.2.1]heptan-1-yl)-6,7-dimethylpteridin-2-yl)tetrahydro-2H-pyran-2-yl)-1-methylpyridin-2(1H)-one] | < 100
5 | Cc1nc2nc(N3C[C@@H](C)O[C@@H](c4ccc(=O)n(C)c4)C3)nc(C34CC(C(F)(F)F)(C3)C4)c2nc1C [Example 62, 5-[(2S,6R)-4-[6,7-dimethyl-4-[3-(trifluoro-methyl)-1-bicyclo[1.1.1]pentanyl]pteridin-2-yl]-6-methyl-morpholin-2-yl]-1-methyl-pyridin-2-one] | < 100
6 | Cc1nc2nc([C@H]3CCO[C@@H](c4ccc(=O)n(C5CC5)c4)C3)nc(-c3ccc(C(F)(F)F)cc3F)c2nc1C [Example 64, 1-cyclopropyl-5-[(2R,4S)-4-[4-[2-fluoro-4-(trifluoromethyl)phenyl]-6,7-dimethyl-pteridin-2-yl]tetrahydropyran-2-yl]pyridin-2-one] | < 100
7 | Cc1nc2nc([C@@H]3CCO[C@H](c4ccc(=O)n(C5CC5)c4)C3)nc(-c3ccc(C(F)(F)F)cc3F)c2nc1C [Example 65, 1-cyclopropyl-5-[(2S,4R)-4-[4-[2-fluoro-4-(trifluoromethyl)phenyl]-6,7-dimethyl-pteridin-2-yl]tetrahydropyran-2-yl]pyridin-2-one] | < 100
8 | Cc1nc2nc([C@@H]3CCO[C@@H](c4ccc(=O)n(C5CC5)c4)C3)nc(-c3ccc(C(F)(F)F)cc3F)c2nc1C [Example 66, 1-cyclopropyl-5-[(2R,4R)-4-[4-[2-fluoro-4-(trifluoromethyl)phenyl]-6,7-dimethyl-pteridin-2-yl]tetrahydropyran-2-yl]pyridin-2-one] | < 100
9 | Cc1nc2nc([C@H]3CCO[C@@H](c4ccc(=O)n(C(C)C)c4)C3)nc(-c3ccc(C(F)(F)F)cc3F)c2nc1C [Example 68, 1-isopropyl-5-[(2R,4S)-4-[4-[2-fluoro-4-(trifluoromethyl)-phenyl]-6,7-dimethyl-pteridin-2-yl]tetrahydropyran-2-yl]pyridin-2-one] | < 100
10 | Cc1nc2nc([C@@H]3CCO[C@H](c4ccc(=O)n(C(C)C)c4)C3)nc(-c3ccc(C(F)(F)F)cc3F)c2nc1C [Example 69, 1-isopropyl-5-[(2S,4R)-4-[4-[2-fluoro-4-(trifluoromethyl)-phenyl]-6,7-dimethyl-pteridin-2-yl]tetrahydropyran-2-yl]pyridin-2-one] | < 100
11 | Cc1nc2nc([C@H]3CCO[C@@H](c4ccc(=O)n(CC(F)F)c4)C3)nc(C34CC(C(F)(F)F)(C3)C4)c2nc1C [Example 71, 1-(2,2-difluoroethyl)-5-[(2R,4S)-4-[6,7-dimethyl-4-[3-(trifluoromethyl)-1-bicyclo[1.1.1]pentanyl]pteridin-2-yl]tetrahydropyran-2-yl]pyridin-2-one] | < 100
12 | Cc1nc2nc([C@@H]3CCO[C@H](c4ccc(=O)n(CC(F)F)c4)C3)nc(C34CC(C(F)(F)F)(C3)C4)c2nc1C [Example 72, 1-(2,2-difluoroethyl)-5-[(2S,4R)-4-[6,7-dimethyl-4-[3-(trifluoro-methyl)-1-bicyclo-[1.1.1]pentanyl]-pteridin-2-yl]tetrahydropyran-2-yl]pyridin-2-one] | < 100
13 | Cc1nc2nc([C@H]3CCO[C@@H](c4ccc(=O)n(C5CC5)c4)C3)nc(C34CC(C(F)(F)F)(C3)C4)c2nc1C [Example 74, 1-cyclopropyl-5-[(2R,4S)-4-[6,7-dimethyl-4-[3-(trifluoromethyl)-1-bicyclo[1.1.1]pentanyl]pteridin-2-yl]tetrahydropyran-2-yl]pyridin-2-one] | < 100
14 | Cc1nc2nc([C@@H]3CCO[C@H](c4ccc(=O)n(C5CC5)c4)C3)nc(C34CC(C(F)(F)F)(C3)C4)c2nc1C [Example 75, 1-cyclopropyl-5-[(2S,4R)-4-[6,7-dimethyl-4-[3-(trifluoromethyl)-1-bicyclo[1.1.1]-pentanyl]-pteridin-2-yl]tetrahydropyran-2-yl]pyridin-2-one] | < 100
15 | Cc1nc2nc([C@H]3CCO[C@@H](c4ccc(=O)n(C(C)C)c4)C3)nc(C34CC(C(F)(F)F)(C3)C4)c2nc1C [Example 77, 1-isopropyl-5-[(2R,4S)-4-[6,7-dimethyl-4-[3-(trifluoromethyl)-1-bicyclo[1.1.1]-pentanyl]pteridin-2-yl]tetrahydropyran-2-yl]pyridin-2-one] | < 100

Next, values leading:

Row | EC50 [nM] | Compound
16 | < 100 | Cc1nc2nc([C@H]3CCO[C@@H](c4ccc(=O)n(C)c4)C3)nc(C34CC(C(F)F)(C3)C4)c2nc1C [Example 31, 5-[(2R,4S)-4-[4-[3-(difluoromethyl)-1-bicyclo[1.1.1]-pentanyl]-6,7-dimethyl-pteridin-2-yl]-tetrahydropyran-2-yl]-1-methyl-pyridin-2-one]
17 | < 100 | Cc1nc2nc([C@H]3CCO[C@@H](c4ccc(=O)[nH]c4)C3)nc(C34CC(C(F)(F)F)(C3)C4)c2nc1C [Example 34, 5-[(2R,4S)-4-[6,7-dimethyl-4-[3-(trifluoromethyl)-1-bicyclo[1.1.1]pentanyl]pteridin-2-yl]tetrahydropyran-2-yl]-1H-pyridin-2-one]
18 | < 100 | [2H]C([2H])([2H])n1cc([C@H]2C[C@@H](c3nc(C45CC(C(F)(F)F)(C4)C5)c4nc(C)c(C)nc4n3)CCO2)ccc1=O [Example 36]
19 | < 100 | Cc1nc2nc([C@H]3CCO[C@@H](c4ccc(=O)n(C)c4)C3)nc(C34CC(C(C)(F)F)(C3)C4)c2nc1C [Example 38, 5-[(2R,4S)-4-[4-[3-(1,1-difluoroethyl)-1-bicyclo[1.1.1]pentanyl]-6,7-dimethyl-pteridin-2-yl]tetrahydropyran-2-yl]-1-methyl-pyridin-2-one]
20 | < 100 | Cc1nc2nc([C@H]3CCO[C@@H](c4ccc(=O)n(C)c4)C3)nc([C@H]3CC[C@H](F)CC3)c2nc1C [Example 42, 5-((2R,4S)-4-(4-((1r,4S)-4-fluorocyclohexyl)-6,7-dimethyl-pteridin-2-yl)tetrahydro-2H-pyran-2-yl)-1-methylpyridin-2(1H)-one]
21 | < 100 | Cc1nc2nc([C@H]3CCO[C@@H](c4ccc(=O)n(C)c4)C3)nc([C@H]3CC[C@@H](F)CC3)c2nc1C [Example 43, 5-((2R,4S)-4-(4-((1s,4R)-4-fluorocyclohexyl)-6,7-dimethylpteridin-2-yl)tetrahydro-2H-pyran-2-yl)-1-methylpyridin-2(1H)-one]
22 | < 100 | Cc1nc2nc([C@H]3CCO[C@@H](c4ccc(=O)n(C)c4)C3)nc(C34CC(CC(F)F)(C3)C4)c2nc1C [Example 46, 5-[(2R,4S)-4-[4-[3-(2,2-difluoroethyl)-1-bicyclo[1.1.1]pentanyl]-6,7-dimethyl-pteridin-2-yl]tetrahydropyran-2-yl]-1-methyl-pyridin-2-one]
23 | < 100 | Cc1nc2nc([C@H]3CCO[C@@H](c4ccc(=O)n(C)c4)C3)nc(C34CC(CCF)(C3)C4)c2nc1C [Example 48, 5-((2R,4S)-4-(4-(3-(2-fluoroethyl)bicyclo[1.1.1]pentan-1-yl)-6,7-dimethylpteridin-2-yl)tetrahydro-2H-pyran-2-yl)-1-methylpyridin-2(1H)-one]
24 | < 100 | Cc1nc2nc([C@H]3CCO[C@@H](c4ccc(=O)n(C)c4)C3)nc(C3CCC(CF)CC3)c2nc1C (stereo partly drawn) [Example 50, 5-[(2R,4S)-4-[4-[4-(fluoromethyl)-cyclohexyl]-6,7-dimethyl-pteridin-2-yl]tetrahydropyran-2-yl]-1-methyl-pyridin-2-one]
25 | < 100 | Cc1nc2nc([C@H]3CCO[C@@H](c4ccc(=O)n(C)c4)C3)nc(C34CC(C(C)(C)F)(C3)C4)c2nc1C [Example 52, 5-[(2R,4S)-4-[4-[3-(1-fluoro-1-methyl-ethyl)-1-bicyclo[1.1.1]pentanyl]-6,7-dimethyl-pteridin-2-yl]tetrahydropyran-2-yl]-1-methyl-pyridin-2-one]
